Experiments:
Type in all cases: biochemical
Conditions in all cases: HotSpot functional assay, isolated kinase enzyme, 33P-ATP
IRAK1 = target: T1, IRAK1 (Homo sapiens, UniProt P51617); assay: RBC HotSpot Kinase Assay, IRAK1
T1 construct: purchased RBC (Reaction Biology) HotSpot assay
From the text: (§1) This assay uses the isolated kinase enzyme. This assay is very useful for determining competition of the inhibitor for ATP and/or substrates and for measuring the kinetics of enzyme inhibition. […] Unlike kinase binding assays that measure competition for ATP, the HotSpot Kinase Assay is a functional assay that measures catalytic activity; as such it measures relative functional potency regardless of the mechanism of enzyme inhibition. This assay uses the form of the various enzymes that are easiest to express, which may not necessarily be the form of the enzyme that exist in the cell. (Sometimes the carboxy terminus has been truncated to aid in expression, or, if it is a receptor kinase, the enzyme itself is isolated from the other parts of the receptor that are involved in regulating kinase activity.)
(§2) The reagent used was as follows: Base Reaction buffer; 20 mM Hepes (pH 7.5), 10 mM MgCl2, 1 mM EGTA, 0.01% Brij35, 0.02 mg/mi BSA, 0.1 mM Na3VO4, 2 mM DTT, 1% DMSO. Required cofactors were added individually to each kinase reaction.
(§3) The reaction procedure was as follows: • 1) Substrates were prepared in freshly prepared Reaction Buffer. • 2) Any required cofactors were delivered to the substrate solution above. • 3) Kinase was delivered into the substrate solution and gently mixed. • 4) Compounds were delivered in 100% DMSO into the kinase reaction mixture by Acoustic technology (Echo550, nanoliter range), followed by incubation for 20 min at room temp. • 5) ^33P-ATP was delivered into the reaction mixture to initiate the reaction. • 6) The mixture was incubated for 2 hours at room temperature. • 7) Kinase activity was detected by P81 filter-binding method.

IRAK4 = target: T2, IRAK4 (Homo sapiens, UniProt Q9NWZ3); assay: RBC HotSpot Kinase Assay, IRAK4; parameters: purchased RBC (Reaction Biology) HotSpot assay
T2 sequence (Q9NWZ3 1-460): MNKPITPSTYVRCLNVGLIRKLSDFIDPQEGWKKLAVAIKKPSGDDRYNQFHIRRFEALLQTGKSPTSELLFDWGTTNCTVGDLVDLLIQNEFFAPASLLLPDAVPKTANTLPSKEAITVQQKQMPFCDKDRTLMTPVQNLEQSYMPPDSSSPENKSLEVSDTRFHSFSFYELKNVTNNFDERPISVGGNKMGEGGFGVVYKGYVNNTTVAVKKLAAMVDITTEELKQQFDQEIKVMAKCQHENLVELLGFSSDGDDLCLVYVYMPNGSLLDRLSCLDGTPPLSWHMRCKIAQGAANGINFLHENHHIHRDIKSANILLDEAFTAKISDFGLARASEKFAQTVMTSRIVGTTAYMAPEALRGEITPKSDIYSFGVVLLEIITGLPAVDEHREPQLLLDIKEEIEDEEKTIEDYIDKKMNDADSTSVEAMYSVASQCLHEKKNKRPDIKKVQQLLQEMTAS
From the text: as §1, §2, §3

FLT3 = target: T3, FLT3 (Homo sapiens, UniProt P36888); assay: RBC HotSpot Kinase Assay, FLT3; parameters: purchased RBC (Reaction Biology) HotSpot assay
T3 sequence (P36888 27-993): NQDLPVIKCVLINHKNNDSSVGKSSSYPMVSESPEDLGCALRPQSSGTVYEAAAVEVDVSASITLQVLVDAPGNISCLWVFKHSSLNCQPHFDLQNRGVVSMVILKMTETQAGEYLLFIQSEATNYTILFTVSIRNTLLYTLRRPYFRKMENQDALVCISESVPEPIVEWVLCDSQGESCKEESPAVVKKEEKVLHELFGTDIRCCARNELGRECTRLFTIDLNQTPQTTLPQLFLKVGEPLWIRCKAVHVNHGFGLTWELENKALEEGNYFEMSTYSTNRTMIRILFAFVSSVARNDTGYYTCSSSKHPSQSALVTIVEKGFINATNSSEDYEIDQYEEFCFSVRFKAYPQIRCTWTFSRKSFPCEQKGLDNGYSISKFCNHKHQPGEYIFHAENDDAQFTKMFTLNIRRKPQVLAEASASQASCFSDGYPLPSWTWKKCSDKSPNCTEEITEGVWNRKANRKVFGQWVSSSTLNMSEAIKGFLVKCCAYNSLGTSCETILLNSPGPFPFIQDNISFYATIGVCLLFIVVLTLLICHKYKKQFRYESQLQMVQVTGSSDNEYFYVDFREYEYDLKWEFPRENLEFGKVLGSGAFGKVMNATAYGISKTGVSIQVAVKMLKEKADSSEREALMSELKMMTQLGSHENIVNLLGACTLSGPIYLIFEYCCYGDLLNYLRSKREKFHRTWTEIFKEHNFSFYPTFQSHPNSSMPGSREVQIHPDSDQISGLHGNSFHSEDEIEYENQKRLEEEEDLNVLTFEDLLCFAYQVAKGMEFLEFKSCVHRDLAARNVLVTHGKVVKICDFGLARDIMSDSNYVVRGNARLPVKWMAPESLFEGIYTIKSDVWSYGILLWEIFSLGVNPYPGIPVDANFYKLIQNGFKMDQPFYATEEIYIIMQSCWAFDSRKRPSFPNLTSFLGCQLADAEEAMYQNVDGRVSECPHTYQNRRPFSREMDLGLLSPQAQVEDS
From the text: as §1, §2, §3

T1 sequence (P51617 whole entry): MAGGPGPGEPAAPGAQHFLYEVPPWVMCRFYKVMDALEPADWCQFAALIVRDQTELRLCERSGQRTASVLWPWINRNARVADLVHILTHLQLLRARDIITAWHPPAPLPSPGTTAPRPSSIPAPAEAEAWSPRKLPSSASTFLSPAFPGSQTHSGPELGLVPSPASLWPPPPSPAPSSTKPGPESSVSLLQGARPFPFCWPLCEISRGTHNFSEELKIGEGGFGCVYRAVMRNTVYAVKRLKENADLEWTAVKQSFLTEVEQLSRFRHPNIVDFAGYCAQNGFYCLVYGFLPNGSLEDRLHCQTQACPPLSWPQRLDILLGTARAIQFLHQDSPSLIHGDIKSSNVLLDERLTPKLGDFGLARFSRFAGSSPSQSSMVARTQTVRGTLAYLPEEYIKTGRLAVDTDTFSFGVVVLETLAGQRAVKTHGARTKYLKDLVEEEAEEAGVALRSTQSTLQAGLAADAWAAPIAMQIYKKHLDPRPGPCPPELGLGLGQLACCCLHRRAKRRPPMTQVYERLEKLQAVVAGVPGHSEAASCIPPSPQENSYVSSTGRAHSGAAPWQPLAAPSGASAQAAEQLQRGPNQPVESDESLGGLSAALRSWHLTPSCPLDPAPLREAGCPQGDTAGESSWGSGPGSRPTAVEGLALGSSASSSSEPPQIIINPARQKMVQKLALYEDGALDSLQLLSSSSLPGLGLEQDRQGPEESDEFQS

SMILES: COc1cc2ncc(-c3nc(N[C@H]4CNCC[C@@H]4F)c(C)cc3C)n2nc1C1CC1 [Compound 64a, 6-(6-cyclopropyl-7-methoxyimidazo[1,2-b]pyridazin-3-yl)-N-((3S,4S)-4-fluoropiperidin-3-yl)-3,5-dimethylpyridin-2-amine]
- IC50 (IRAK1): > 10000 nM
- IC50 (IRAK4): > 10000 nM
- IC50 (FLT3): 821 nM

SMILES: COc1cc2ncc(-c3nc(N[C@@H]4CCCNC4)c(F)cc3F)n2nc1C1CC2(CCC2)C1 [Compound 11a, (R)-3,5-difluoro-6-(7-methoxy-6-(spiro[3.3]heptan-2-yl)imidazo[1,2-b]pyridazin-3-yl)-N-(piperidin-3-yl)pyridin-2-amine]
- IC50 (IRAK1): 30 nM
- IC50 (IRAK4): 16 nM
- IC50 (FLT3): < 0.5 nM

SMILES: COc1cc2ncc(-c3nc(N[C@H]4CNCC[C@@H]4F)c(F)cc3F)n2nc1C1CCCC1 [Compound 18a, 6-(6-cyclopentyl-7-methoxyimidazo[1,2-b]pyridazin-3-yl)-3,5-difluoro-N-((3S,4S)-4-fluoropiperidin-3-yl)pyridin-2-amine]
- IC50 (IRAK1): 3 nM
- IC50 (IRAK4): 0.6 nM
- IC50 (FLT3): < 0.5 nM

SMILES: COc1cc2ncc(-c3cc(C4CC4)cc(N[C@H]4CNCC[C@@H]4F)n3)n2nc1C1CC1 [Compound 56a, 4-cyclopropyl-6-(6-cyclopropyl-7-methoxyimidazo[1,2-b]pyridazin-3-yl)-N-((3S,4S)-4-fluoropiperidin-3-yl)pyridin-2-amine]
- IC50 (IRAK1): > 10000 nM
- IC50 (IRAK4): 9000 nM
- IC50 (FLT3): 2 nM

SMILES: COc1cc2ncc(-c3nc(N[C@H]4CNC[C@@H]4F)c(C)cc3C)n2nc1C1CC1 [Compound 63a, 6-(6-cyclopropyl-7-methoxyimidazo[1,2-b]pyridazin-3-yl)-N-((3S,4S)-4-fluoropyrrolidin-3-yl)-3,5-dimethylpyridin-2-amine]
- IC50 (IRAK1): > 10000 nM
- IC50 (IRAK4): > 10000 nM
- IC50 (FLT3): 377 nM

SMILES: COc1cc2ncc(-c3nc(N[C@@H]4CCCNC4)c(F)cc3F)n2nc1N1CCCC1=O [Compound 23a, (R)-1-(3-(3,5-difluoro-6-(piperidin-3-ylamino)pyridin-2-yl)-7-methoxyimidazo[1,2-b]pyridazin-6-yl)pyrrolidin-2-one]
- IC50 (IRAK1): 348 nM
- IC50 (IRAK4): 48 nM
- IC50 (FLT3): 2 nM

SMILES: COc1cc2ncc(-c3cc(-c4ccccc4)cc(N[C@@H]4CCCNC4)n3)n2nc1C1CC1 [Compound 55a, (R)-6-(6-cyclopropyl-7-methoxyimidazo[1,2-b]pyridazin-3-yl)-4-phenyl-N-(piperidin-3-yl)pyridin-2-amine]
- IC50 (IRAK1): 4010 nM
- IC50 (IRAK4): 4110 nM
- IC50 (FLT3): 741 nM

SMILES: COc1cc2ncc(-c3nc(N[C@H]4CNC[C@@H]4F)c(F)cc3F)n2nc1N1CCCC1=O [Compound 24a, 1-(3-(3,5-difluoro-6-(((3S,4S)-4-fluoropyrrolidin-3-yl)amino)pyridin-2-yl)-7-methoxyimidazo[1,2-b]pyridazin-6-yl)pyrrolidin-2-one]
- IC50 (IRAK1): 186 nM
- IC50 (IRAK4): 11 nM
- IC50 (FLT3): 1 nM

SMILES: COc1cc2ncc(-c3cc(C)cc(N[C@@H]4CCCNC4)n3)n2nc1C1CC1 [Compound 51a, (R)-6-(6-cyclopropyl-7-methoxyimidazo[1,2-b]pyridazin-3-yl)-4-methyl-N-(piperidin-3-yl)pyridin-2-amine]
- IC50 (IRAK1): > 10000 nM
- IC50 (IRAK4): 4920 nM
- IC50 (FLT3): 2 nM

SMILES: COc1ccc(-c2cnc3cc(OC)c(C4CC4)nn23)nc1N[C@H]1CNC[C@@H]1F [Compound 33a, 6-(6-cyclopropyl-7-methoxyimidazo[1,2-b]pyridazin-3-yl)-N-((3S,4S)-4-fluoropyrrolidin-3-yl)-3-methoxypyridin-2-amine]
- IC50 (IRAK1): > 10000 nM
- IC50 (IRAK4): 47 nM
- IC50 (FLT3): < 0.5 nM

SMILES: COc1ccc(N[C@H]2CNCC[C@@H]2F)nc1-c1cnc2cc(OC)c(C3CC3)nn12 [Compound 37a, 6-(6-cyclopropyl-7-methoxyimidazo[1,2-b]pyridazin-3-yl)-N-((3S,4S)-4-fluoropiperidin-3-yl)-5-methoxypyridin-2-amine]
- IC50 (IRAK1): > 10000 nM
- IC50 (IRAK4): 247 nM
- IC50 (FLT3): 40 nM

SMILES: COc1cc2ncc(-c3nc(N[C@H]4CNCC[C@@H]4F)c(F)cc3F)n2nc1C1CC(C)(C)C1 [Compound 9a, 6-(6-(3,3-dimethylcyclobutyl)-7-methoxyimidazo[1,2-b]pyridazin-3-yl)-3,5-difluoro-N-((3S,4S)-4-fluoropiperidin-3-yl)pyridin-2-amine]
- IC50 (IRAK1): 74 nM
- IC50 (IRAK4): 26 nM
- IC50 (FLT3): < 0.5 nM

SMILES: COc1cc2ncc(-c3cc(Oc4ccccc4)cc(N[C@@H]4CCCNC4)n3)n2nc1C1CC1 [Compound 59a, (R)-6-(6-cyclopropyl-7-methoxyimidazo[1,2-b]pyridazin-3-yl)-4-phenoxy-N-(piperidin-3-yl)pyridin-2-amine]
- IC50 (IRAK1): > 10000 nM
- IC50 (IRAK4): > 10000 nM
- IC50 (FLT3): 96 nM

SMILES: COc1cc2ncc(-c3nc(N[C@H]4CNCC[C@@H]4F)c(F)cc3F)n2nc1N1CCCC1=O [Compound 22a, 1-(3-(3,5-difluoro-6-(((3S,4S)-4-fluoropiperidin-3-yl)amino)pyridin-2-yl)-7-methoxyimidazo[1,2-b]pyridazin-6-yl)pyrrolidin-2-one]
- IC50 (IRAK1): 55 nM
- IC50 (IRAK4): 9 nM
- IC50 (FLT3): < 0.5 nM

SMILES: COc1cc2ncc(-c3nc(N[C@@H]4CCCNC4)ccc3C#N)n2nc1C1CC1 [Compound 30a, (R)-2-(6-cyclopropyl-7-methoxyimidazo[1,2-b]pyridazin-3-yl)-6-(piperidin-3-ylamino)nicotinonitrile]
- IC50 (IRAK1): 2290 nM
- IC50 (IRAK4): 110 nM
- IC50 (FLT3): 48 nM

SMILES: COc1cc2ncc(-c3nc(N[C@@H]4CCCNC4)c(F)cc3F)n2nc1C1CCCCC1 [Compound 20a, (R)-6-(6-cyclohexyl-7-methoxyimidazo[1,2-b]pyridazin-3-yl)-3,5-difluoro-N-(piperidin-3-yl)pyridin-2-amine]
- IC50 (IRAK1): 6 nM
- IC50 (IRAK4): 6 nM
- IC50 (FLT3): < 0.5 nM

SMILES: COc1ccc(-c2cnc3cc(OC)c(C4CC4)nn23)nc1N[C@H]1CNCC[C@@H]1F [Compound 35a, 6-(6-cyclopropyl-7-methoxyimidazo[1,2-b]pyridazin-3-yl)-N-((3S,4S)-4-fluoropiperidin-3-yl)-3-methoxypyridin-2-amine]
- IC50 (IRAK1): > 10000 nM
- IC50 (IRAK4): 55 nM
- IC50 (FLT3): < 0.5 nM

SMILES: COc1cc2ncc(-c3ccc(C#N)c(N[C@H]4CNC[C@@H]4F)n3)n2nc1C1CC1 [Compound 27a, 6-(6-cyclopropyl-7-methoxyimidazo[1,2-b]pyridazin-3-yl)-2-(((3S,4S)-4-fluoropyrrolidin-3-yl)amino) nicotinonitrile]
- IC50 (IRAK1): 5 nM
- IC50 (IRAK4): < 0.5 nM
- IC50 (FLT3): < 0.5 nM

From patent US20250368648A1, “MULTI-CYCLIC IRAK AND FLT3 INHIBITING COMPOUNDS AND USES THEREOF” (CHILDREN'S HOSPITAL MEDICAL CENTER, priority 2022, published 2025)
